# Results published in patent publication US6239171A, “Tocotrienols and tocotrienol-like compounds and methods for their use” (Lipogenics, Inc., priority 1998, dated 2001).
# Tests used:
# HMG-CoA reductase = target: T1, HMG-CoA reductase (Homo sapiens, UniProt P04035); assay: Hepatic HMG-CoA reductase activity in chickens fed supplemented diets; type: in vivo, chicken; conditions: control diet + 50 ppm, 4 weeks
# T1 construct: hepatocytes isolated from livers of 8-week old female chickens; endogenous in cells; host or cells: primary chicken hepatocytes
# T1 sequence (P04035 1-888): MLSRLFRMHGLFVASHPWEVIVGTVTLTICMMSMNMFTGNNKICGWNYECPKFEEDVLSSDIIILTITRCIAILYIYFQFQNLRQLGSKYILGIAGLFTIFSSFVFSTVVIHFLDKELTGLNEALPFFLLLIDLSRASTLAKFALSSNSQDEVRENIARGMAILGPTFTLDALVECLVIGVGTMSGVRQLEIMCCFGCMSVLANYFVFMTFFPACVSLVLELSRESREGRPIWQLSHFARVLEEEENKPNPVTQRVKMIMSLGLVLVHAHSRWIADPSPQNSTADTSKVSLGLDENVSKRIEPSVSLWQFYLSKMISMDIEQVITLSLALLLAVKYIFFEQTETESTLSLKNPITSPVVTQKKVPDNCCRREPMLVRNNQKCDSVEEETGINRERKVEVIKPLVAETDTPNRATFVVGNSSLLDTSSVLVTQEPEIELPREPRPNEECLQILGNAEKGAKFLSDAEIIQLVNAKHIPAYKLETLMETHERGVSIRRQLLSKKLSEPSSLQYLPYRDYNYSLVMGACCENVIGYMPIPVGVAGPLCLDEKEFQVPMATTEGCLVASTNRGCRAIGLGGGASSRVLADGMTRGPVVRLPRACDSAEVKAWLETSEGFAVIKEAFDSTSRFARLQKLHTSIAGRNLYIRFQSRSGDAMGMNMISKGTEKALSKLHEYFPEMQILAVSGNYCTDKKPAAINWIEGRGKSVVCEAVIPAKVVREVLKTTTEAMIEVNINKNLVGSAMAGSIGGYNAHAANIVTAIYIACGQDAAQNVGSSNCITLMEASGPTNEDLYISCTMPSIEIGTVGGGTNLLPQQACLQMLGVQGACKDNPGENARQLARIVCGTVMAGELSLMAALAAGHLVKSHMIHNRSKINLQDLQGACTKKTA
# Method: (§1) This example measured the effects of the TRF and its components on the hepatic enzymatic activity of HMG-CoA reductase and cholesterol 7α-hydroxylase. […] The amount of feed consumed ranged from 11.19-11.60 g per chicken and the feeding period was 4 weeks. The birds were fasted for a period of 36 hours and refed for 48 hours prior to sacrifice (at 0800 hours).
# [1] = test system: cholesterol 7α-hydroxylase; assay: Hepatic cholesterol 7α-hydroxylase activity in chickens fed supplemented diets; type: in vivo, chicken; conditions: control diet + 50 ppm, 4 weeks
# Method: as §1
# chickens = assay: Plasma thromboxane B2 and platelet factor 4 in chickens fed supplemented diets; type: in vivo, chicken; conditions: control diet + 50 ppm, 4 weeks
# Source text: We next measured the effects of TRF and its components on serum levels of apolipoprotein (a)1, apolipoprotein B, triglycerides and glucose and the plasma levels of thromboxane B2 and platelet factor 4.
# [2] = test system: hypercholesterolemic swine; assay: Total cholesterol, triglyceride and glucose concentrations in tissues of hypercholesterolemic swine; type: in vivo; conditions: control diet + 50 ppm, 42 days
# Method: Each group of three 5-month old swine was administered either a control diet or a control diet supplemented with 50 ppm of TRF or 50 ppm of an individual tocotrienol. […] After a 12 hour fast, serum and plasma samples were taken a 0 hrs, 21 days and 42 days from the start of the feeding period. After taking serum and plasma samples from the pigs at the end of the 42 day period, all of the swine were fasted for a total of 40 hours, followed by a 48 hour refeeding period. One swine from each group was sacrificed at that time and the liver, intestine, lung, heart, loin muscle, adipose tissue and ham muscle were removed.
# We next determined the effect of tocotrienols on the total cholesterol, triglyceride and glucose concentrations in various tissues of hypercholesterolemic swine.
structure (smiles),measurement,setting,value
"CC(C)=CCC/C(C)=C/CC/C(C)=C/CCC1(C)CCc2cc(O)c(C)c(C)c2O1 (stereo not shown) [γ-T3, γ-tocotrienol, reference compound]","HMG-CoA Reductase, percentage of control",HMG-CoA reductase,78.32%
same,"Cholesterol 7α-Hydroxylase, percentage of control",[1],107.34%
same,Cholesterol 7α-hydroxylase,[1],10.97 nmol/min/mg
same,Platelet Factor 4,chickens,8.36 ng/mL
same,"Platelet Factor 4, percentage of control",chickens,63.87%
same,Thromboxane B2,chickens,19.22 pg/mL
same,"Thromboxane B2, percentage of control",chickens,74.38%
same,"TOTAL CHOLESTEROL CONCENTRATION, Adipose Tissue",[2],94.55 mg/100 gm
same,"TOTAL CHOLESTEROL CONCENTRATION, Ham Muscle",[2],85.15 mg/100 gm
same,"TOTAL CHOLESTEROL CONCENTRATION, Heart",[2],56.68 mg/100 gm
same,"TOTAL CHOLESTEROL CONCENTRATION, Intestine",[2],187.06 mg/100 gm
same,"TOTAL CHOLESTEROL CONCENTRATION, Liver",[2],149.20 mg/100 gm
same,"TOTAL CHOLESTEROL CONCENTRATION, Loin Muscle",[2],103.48 mg/100 gm
same,"TOTAL CHOLESTEROL CONCENTRATION, Lung",[2],83.79 mg/100 gm
same,"TOTAL CHOLESTEROL, Adipose Tissue, percentage of control",[2],86.43%
same,"TOTAL CHOLESTEROL, Ham Muscle, percentage of control",[2],85.15%
same,"TOTAL CHOLESTEROL, Heart, percentage of control",[2],87.86%
same,"TOTAL CHOLESTEROL, Intestine, percentage of control",[2],86.81%
same,"TOTAL CHOLESTEROL, Liver, percentage of control",[2],74.01%
same,"TOTAL CHOLESTEROL, Loin Muscle, percentage of control",[2],86.51%
same,"TOTAL CHOLESTEROL, Lung, percentage of control",[2],82.36%
same,"TOTAL GLUCOSE CONCENTRATION, Adipose Tissue",[2],15.93 mg/100 gm
same,"TOTAL GLUCOSE CONCENTRATION, Ham Muscle",[2],52.10 mg/100 gm
same,"TOTAL GLUCOSE CONCENTRATION, Heart",[2],46.81 mg/100 gm
same,"TOTAL GLUCOSE CONCENTRATION, Intestine",[2],62.50 mg/100 gm
same,"TOTAL GLUCOSE CONCENTRATION, Liver",[2],383.68 mg/100 gm
same,"TOTAL GLUCOSE CONCENTRATION, Loin Muscle",[2],60.30 mg/100 gm
same,"TOTAL GLUCOSE CONCENTRATION, Lung",[2],63.08 mg/100 gm
same,"TOTAL GLUCOSE, Adipose Tissue, percentage of control",[2],86.86%
same,"TOTAL GLUCOSE, Ham Muscle, percentage of control",[2],96.80%
same,"TOTAL GLUCOSE, Heart, percentage of control",[2],95.05%
same,"TOTAL GLUCOSE, Intestine, percentage of control",[2],86.84%
same,"TOTAL GLUCOSE, Liver, percentage of control",[2],94.53%
same,"TOTAL GLUCOSE, Loin Muscle, percentage of control",[2],84.64%
same,"TOTAL GLUCOSE, Lung, percentage of control",[2],94.25%
same,"TOTAL TRIGLYCERIDES CONCENTRATION, Adipose Tissue",[2],391.58 mg/100 gm
same,"TOTAL TRIGLYCERIDES CONCENTRATION, Ham Muscle",[2],181.99 mg/100 gm
same,"TOTAL TRIGLYCERIDES CONCENTRATION, Heart",[2],142.72 mg/100 gm
same,"TOTAL TRIGLYCERIDES CONCENTRATION, Intestine",[2],351.33 mg/100 gm
same,"TOTAL TRIGLYCERIDES CONCENTRATION, Liver",[2],397.51 mg/100 gm
same,"TOTAL TRIGLYCERIDES CONCENTRATION, Loin Muscle",[2],201.65 mg/100 gm
same,"TOTAL TRIGLYCERIDES CONCENTRATION, Lung",[2],167.18 mg/100 gm
same,"TOTAL TRIGLYCERIDES, Adipose Tissue, percentage of control activity",[2],89.88%
same,"TOTAL TRIGLYCERIDES, Ham Muscle, percentage of control activity",[2],97.93%
same,"TOTAL TRIGLYCERIDES, Heart, percentage of control activity",[2],98.96%
same,"TOTAL TRIGLYCERIDES, Intestine, percentage of control activity",[2],98.24%
same,"TOTAL TRIGLYCERIDES, Liver, percentage of control activity",[2],92.58%
same,"TOTAL TRIGLYCERIDES, Loin Muscle, percentage of control activity",[2],91.79%
same,"TOTAL TRIGLYCERIDES, Lung, percentage of control activity",[2],97.22%
